Data reported in patent US20220370416A1, “COMPOUNDS AND METHODS FOR TARGETED DEGRADATION OF KRAS” (Arvinas Operations, Inc., priority 2020, published 2022).
Values belong to the compound of their own block, whether it stands above or below them.

Columns and labels:
[1] = molecular target: T1, HiBit-KRAS^G12C (Homo sapiens, UniProt P01116, G12C); test: HiBit degradation assay in MiaPaCa-2 HiBit-KRas^G12C cells; type: cell-based; settings: 24 hours
Procedure, shortened: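 DC50 and Dmax come from 4-parameter fits of DMSO-normalized HiBit luminescence after 24 hours' exposure at 37° C to 10 μM–20 nM compound in 0.1% or 0.5% DMSO. Cells: MiaPaCa-2 carrying one endogenously HiBit-tagged KRAS^G12C allele; concentrations causing ≥50% […] viability loss (alamar blue) excluded.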

[2] = molecular target: T1, HiBit-KRAS^G12C; test: HiBit degradation assay in SW1573 HiBit-KRas^G12C cells; type: cell-based; parameters: expressed in transfected cells; host or cells: SW1573 (clone E6), modified pcDNA3.1 vector, TK promoter; settings: 24 hours
Procedure, shortened: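 HiBit-KRAS G12C degradation was measured after a 24 h compound exposure (titrated 10 μM–20 nM) in engineered SW1573 cells. Lytic HiBit luminescence, expressed relative to DMSO controls, yielded DC50 and Dmax from 4-parameter fits. Concentrations causing ≥50% loss in alamar blue viability were omitted as cytotoxic.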

[3] = read-out: KRas^G12C-HiBiT (MiaPaCa; 0.5% DMSO) IC50, MiaPaCa-2 HiBit-KRas^G12C cells, 0.5% DMSO
[4] = SW1573 HiBit-KRas^G12C, 0.5% DMSO
[5] = read-out: KRas^G12C-HiBiT (SW1573; 0.5% DMSO) IC50***, SW1573 HiBit-KRas^G12C, 0.5% DMSO
[6] = SW1573, read-out: KRas^G12C-HiBit (SW1573; 0.1% DMSO) Dmax**, SW1573 HiBit-KRas^G12C, 0.1% DMSO
[7] = SW1573 HiBit-KRas^G12C, 0.1% DMSO, read-out: KRas^G12C-HIBit (SW1573; 0.1% DMSO) DC50*
[8] = MIA PaCa-2, MiaPaCa-2 HiBit-KRas^G12C cells, 0.5% DMSO, maximum degradation, read-out: KRas^G12C-HiBiT (MiaPaCa; 0.5% DMSO) DMax
[9] = SW1573, SW1573 HiBit-KRas^G12C, 0.5% DMSO, read-out: KRas^G12C-HiBiT (SW1573; 0.5% DMSO) Dmax**

T1 sequence (P01116 1-186 isoform P01116-2 G12C limits assumed): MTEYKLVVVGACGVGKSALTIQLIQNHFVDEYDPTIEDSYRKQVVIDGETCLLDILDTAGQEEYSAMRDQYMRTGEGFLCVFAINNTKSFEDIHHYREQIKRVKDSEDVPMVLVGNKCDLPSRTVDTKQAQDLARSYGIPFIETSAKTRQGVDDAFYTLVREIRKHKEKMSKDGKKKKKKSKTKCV

Compound: C=C(F)C(=O)N1CCN(c2nc(OCCN3CCC(COc4cc([C@H](C(=O)N5C[C@H](O)C[C@H]5C(=O)N[C@@H](C)c5ccc(-c6scnc6C)cc5)C(C)C)on4)CC3)nc3c(F)c(-c4cc(O)cc5ccccc45)c(Cl)cc23)C[C@@H]1CC#N (atropisomer, axis not shown) [Compound 166, (2S,4R)-1-[(2R)-2-[3-({1-[2-({6-chloro-4-[(3S)-3-(cyanomethyl)-4-(2-fluoroprop-2-enoyl)piperazin-1-yl]-8-fluoro-7-(3-hydroxynaphthalen-1-yl)quinazolin-2-yl}oxy)ethyl]piperidin-4-yl}methoxy)-1,2-oxazol-5-yl]-3-methylbutanoyl]-4-hydroxy-N-[(1S)-1-[4-(4-methyl-1,3-thiazol-5-yl)phenyl]ethyl]pyrrolidine-2-carboxamide]
DC50 [1, 3]: > 1000 nM | KRas^G12C-HiBiT (SW1573; 0.5% DMSO) Dmax** [2, 4]: B (35 < B < 70) | DC50 [2, 5]: 100 to 1000 nM

Compound: C=CC(=O)N1CCN(c2nc(O[C@H](C)CN3CCN(CCOC4CCN(CC(=O)N[C@H](C(=O)N5C[C@H](O)C[C@H]5C(=O)N[C@@H](C)c5ccc(-c6scnc6C)cc5)C(C)(C)C)CC4)CC3)nc3c(F)c(-c4cc(O)cc5ccccc45)c(Cl)cc23)CC1 [Compound 55, (2S,4R)-1-[(2S)-2-{2-[4-(2-{4-[(2R)-2-{[6-chloro-8-fluoro-7-(3-hydroxynaphthalen-1-yl)-4-[4-(prop-2-enoyl)piperazin-1-yl]quinazolin-2-yl]oxy}propyl]piperazin-1-yl}ethoxy)piperidin-1-yl]acetamido}-3,3-dimethylbutanoyl]-4-hydroxy-N-[(1S)-1-[4-(4-methyl-1,3-thiazol-5-yl)phenyl]ethyl]pyrrolidine-2-carboxamide]
DC50 ([1]; read-out: KRas^G12C-HiBiT (MiaPaCa; 0.1% DMSO) IC50, MiaPaCa-2 HiBit-KRas^G12C cells, 0.1% DMSO): > 1000 nM | Dmax [2, 6]: < 35% | DC50 [2, 7]: 100 to 1000 nM

Compound: C=CC(=O)N1CCN(c2nc(OCCN3CCC(COc4cc([C@@H](C(=O)N5C[C@H](O)C[C@H]5C(=O)N[C@@H](C)c5ccc(-c6scnc6C)cc5)C(C)C)on4)CC3)nc3c(F)c(-c4cc(O)cc5ccccc45)c(Cl)cc23)C[C@@H]1CC#N [Compound 172, (2S,4R)-1-[(2S)-2-[3-({1-[2-({6-chloro-4-[(3S)-3-(cyanomethyl)-4-(prop-2-enoyl)piperazin-1-yl]-8-fluoro-7-(3-hydroxynaphthalen-1-yl)quinazolin-2-yl}oxy)ethyl]piperidin-4-yl}methoxy)-1,2-oxazol-5-yl]-3-methylbutanoyl]-4-hydroxy-N-[(1S)-1-[4-(4-methyl-1,3-thiazol-5-yl)phenyl]ethyl]pyrrolidine-2-carboxamide]
DC50 [1, 3]: > 1000 nM | DC50 [2, 5]: > 1000 nM

Compound: C=CC(=O)N1CCN(c2nc(OCCN3CCC(COc4cc([C@H](C(=O)N5C[C@H](O)C[C@H]5C(=O)N[C@@H](C)c5ccc(-c6scnc6C)cc5)C(C)C)on4)CC3)nc3c(F)c(-c4cc(O)cc5ccccc45)c(Cl)cc23)C[C@@H]1CC#N [Compound 169, (2S,4R)-1-[(2R)-2-[3-({1-[2-({6-chloro-4-[(3S)-3-(cyanomethyl)-4-(prop-2-enoyl)piperazin-1-yl]-8-fluoro-7-(3-hydroxynaphthalen-1-yl)quinazolin-2-yl}oxy)ethyl]piperidin-4-yl}methoxy)-1,2-oxazol-5-yl]-3-methylbutanoyl]-4-hydroxy-N-[(1S)-1-[4-(4-methyl-1,3-thiazol-5-yl)phenyl]ethyl]pyrrolidine-2-carboxamide]
KRas^G12C-HiBiT (MiaPaCa; 0.5% DMSO) DMax ([1]; MiaPaCa-2 HiBit-KRas^G12C cells, 0.5% DMSO, maximum degradation): A (A ≥ 70) | DC50 [1, 3]: 100 to 1000 nM | KRas^G12C-HiBiT (SW1573; 0.5% DMSO) Dmax** [2, 4]: A (A ≥ 70) | DC50 [2, 5]: < 100 nM

Compound: C=CC(=O)N1CCN(c2nc(O[C@H](C)CN3CCC(COCC(=O)N[C@H](C(=O)N4C[C@H](O)C[C@H]4C(=O)N[C@@H](C)c4ccc(-c5scnc5C)cc4)C(C)(C)C)CC3)nc3c(F)c(-c4cc(O)cc5cccc(C)c45)c(Cl)cc23)CC1 [Compound 11, (2S,4R)-1-[(2S)-2-[2-({1-[(2R)-2-{[6-chloro-8-fluoro-7-(3-hydroxy-8-methylnaphthalen-1-yl)-4-[4-(prop-2-enoyl)piperazin-1-yl]quinazolin-2-yl]oxy}propyl]piperidin-4-yl}methoxy)acetamido]-3,3-dimethylbutanoyl]-4-hydroxy-N-[(1S)-1-[4-(4-methyl-1,3-thiazol-5-yl)phenyl]ethyl]pyrrolidine-2-carboxamide]
Dmax ([1]; MIA PaCa-2, read-out: KRas^G12C-HiBiT (MiaPaCa; 0.1% DMSO) DMax, MiaPaCa-2 HiBit-KRas^G12C cells, 0.1% DMSO, maximum degradation): 35 to 70% | Dmax [2, 6]: 35 to 70% | DC50 [2, 7]: 100 to 1000 nM

Second part, the compound after the results:

DC50 [1, 3]: > 1000 nM | DC50 [2, 5]: > 1000 nM
Compound: C=CC(=O)N1CCN(c2nc(OCCN3CCC(F)(COc4cc([C@@H](C(=O)N5C[C@H](O)C[C@H]5C(=O)N[C@@H](C)c5ccc(-c6scnc6C)cc5)C(C)C)on4)CC3)nc3c(F)c(-c4cc(O)cc5ccccc45)c(Cl)cc23)C[C@@H]1CC#N [Compound 134, (2S,4R)-1-[(2S)-2-[3-({1-[2-({6-chloro-4-[(3S)-3-(cyanomethyl)-4-(prop-2-enoyl)piperazin-1-yl]-8-fluoro-7-(3-hydroxynaphthalen-1-yl)quinazolin-2-yl}oxy)ethyl]-4-fluoropiperidin-4-yl}methoxy)-1,2-oxazol-5-yl]-3-methylbutanoyl]-4-hydroxy-N-[(1S)-1-[4-(4-methyl-1,3-thiazol-5-yl)phenyl]ethyl]pyrrolidine-2-carboxamide]

Dmax [1, 8]: 35 to 70% | DC50 [1, 3]: 100 to 1000 nM | Dmax [2, 9]: > 70% | DC50 [2, 5]: 100 to 1000 nM
Compound: C=CC(=O)N1CCN(c2nc(O[C@@H]3CCC[C@H]3N3CCC(COCC(=O)N[C@H](C(=O)N4C[C@H](O)C[C@H]4C(=O)N[C@@H](C)c4ccc(-c5scnc5C)cc4)C(C)(C)C)CC3)nc3c(F)c(-c4cc(O)cc5ccccc45)c(Cl)cc23)C[C@@H]1CC#N [Compound 130, (2S,4R)-1-[(2S)-2-[2-({1-[(1R,2R)-2-({6-chloro-4-[(3S)-3-(cyanomethyl)-4-(prop-2-enoyl)piperazin-1-yl]-8-fluoro-7-(3-hydroxynaphthalen-1-yl)quinazolin-2-yl}oxy)cyclopentyl]piperidin-4-yl}methoxy)acetamido]-3,3-dimethylbutanoyl]-4-hydroxy-N-[(1S)-1-[4-(4-methyl-1,3-thiazol-5-yl)phenyl]ethyl]pyrrolidine-2-carboxamide]

Dmax [1, 8]: 35 to 70% | DC50 [1, 3]: 100 to 1000 nM | Dmax [2, 9]: 35 to 70% | DC50 [2, 5]: 100 to 1000 nM
Compound: C=CC(=O)N1CCN(c2nc(OCCN3CCC(COCC(=O)N[C@H](C(=O)N4C[C@H](O)C[C@H]4C(=O)N[C@@H](C)c4ccc(-c5scnc5C)cc4)C(C)(C)C)CC3)nc3c(F)c(-c4cccc5cccc(C)c45)c(Cl)cc23)C[C@@H]1CC#N [Compound 135, (2S,4R)-1-[(2S)-2-[2-({1-[2-({6-chloro-4-[(3S)-3-(cyanomethyl)-4-(prop-2-enoyl)piperazin-1-yl]-8-fluoro-7-(8-methylnaphthalen-1-yl)quinazolin-2-yl}oxy)ethyl]-piperidin-4-yl}methoxy)acetamido]-3,3-dimethylbutanoyl]-4-hydroxy-N-[(1S)-1-[4-(4-methyl-1,3-thiazol-5-yl)phenyl]ethyl]pyrrolidine-2-carboxamide]
